Test results: patent US20060252807A1, “Novel ortho-terphenyl inhibitors of p38 kinase and methods of treating inflammatory disorders” (Kalypsys, Inc., priority 2005, published 2006)

Target: T1, active p38 alpha enzyme (Upstate Biotechnology) (Homo sapiens, UniProt Q16539)
T1 construct: purchased Upstate Biotechnology
Test: p38α biochemical assay (ATP turnover, luminescent detection, Cambrex PKlight)
Conditions: p38α biochemical assay, Table 1 Biological Activity
Protocol: The p38α biochemical assay employed is based on measurement of total ATP turnover following enzyme incubation with substrate in the presence of ATP with the use of a luminescent detection reagent (Cambrex PKlight). The assays were performed in 1536-well white opaque plates.
The final volume was 7.5005 μL as prepared prepared from the addition of 5 ul of kinase reaction (p38 alpah+MapkapK2+ATP) with 0.0005 μL compound dissolved in DMSO, and 2.5 ul of the detection reagent. Assay buffer contains the following reagents to give final concentration in the assay: 200 mM Tris, 100 mM MgCl2, 1.5 mM EGTA, 4 mM CaCl2, 20 mM MOPS, 1 mM EDTA, 1% glycerol, 0.1% B-Mecaptoethanol, and 1 mg/ml BSA. Test compounds are pinned using proprietary pintool technology (Kalypsys, Inc) and delivered as […] amounts into the 5 ul mixture of active p38 alpha enzyme (Upstate Biotechnology) and MapkapK2 (Upstate Biotechnology) whole protein as a substrate for phosphorylation in the presence of 1.4 uM final concentration ATP. Reactions are incubated at 30C for 2 hours and detection reagent is added in 2.5 ul/well amounts. Assay is read using a Perkin Elmer Viewlux.

T1 sequence (Q16539 whole entry): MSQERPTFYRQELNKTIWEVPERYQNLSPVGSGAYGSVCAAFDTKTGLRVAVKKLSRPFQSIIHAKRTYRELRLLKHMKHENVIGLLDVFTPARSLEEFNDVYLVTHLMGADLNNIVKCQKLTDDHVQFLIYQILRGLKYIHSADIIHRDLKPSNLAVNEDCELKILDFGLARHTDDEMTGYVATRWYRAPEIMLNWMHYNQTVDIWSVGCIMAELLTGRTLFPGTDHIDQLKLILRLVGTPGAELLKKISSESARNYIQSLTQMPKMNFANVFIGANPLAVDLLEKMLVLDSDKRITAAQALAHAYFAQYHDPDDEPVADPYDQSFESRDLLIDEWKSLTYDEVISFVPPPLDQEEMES

CC(C)NC(=O)c1csc(-c2oc(CNC(=O)c3ccncc3)nc2-c2ccc(F)cc2)n1 [Example 113]
IC50: ≤ 1000 nM

CC(C)NC(=O)c1csc(-c2oc(CNC(=O)c3ccccn3)nc2-c2ccc(F)cc2)n1 [Example 114]
IC50: > 1000 nM

CC(C)NC(=O)c1csc(-c2oc(CNC(=O)C(O)CCl)nc2-c2ccc(F)cc2)n1 (stereo not drawn) [Example 115]
IC50: ≤ 1000 nM

Cc1cc(C(=O)NCc2nc(-c3ccc(F)cc3)c(-c3nc(C(=O)NC(C)C)cs3)o2)n[nH]1 [Example 116]
IC50: ≤ 1000 nM

CC(C)NC(=O)c1csc(-c2oc(CNC(=O)c3cn(C)cn3)nc2-c2ccc(F)cc2)n1 [Example 117]
IC50: > 1000 nM

CC(C)NC(=O)c1csc(-c2oc(CNC(=O)C3CCCCC3)nc2-c2ccc(F)cc2)n1 [Example 118]
IC50: ≤ 1000 nM

CC(C)NC(=O)c1csc(-c2oc(CNC(=O)c3cscn3)nc2-c2ccc(F)cc2)n1 [Example 119]
IC50: ≤ 1000 nM

CCOC(=O)CC(=O)NCc1nc(-c2ccc(F)cc2)c(-c2nc(C(=O)NC(C)C)cs2)o1 [Example 120]
IC50: ≤ 1000 nM

Cc1cccc(C(=O)NCc2nc(-c3ccc(F)cc3)c(-c3nc(C(=O)NC(C)C)cs3)o2)c1 [Example 121]
IC50: > 1000 nM

Cc1ccccc1C(=O)NCc1nc(-c2ccc(F)cc2)c(-c2nc(C(=O)NC(C)C)cs2)o1 [Example 122]
IC50: > 1000 nM

Cc1ccc(C(=O)NCc2nc(-c3ccc(F)cc3)c(-c3nc(C(=O)NC(C)C)cs3)o2)cc1 [Example 123]
IC50: > 1000 nM

CC(C)NC(=O)c1csc(-c2oc(CNC(=O)c3cccc(O)c3)nc2-c2ccc(F)cc2)n1 [Example 124]
IC50: ≤ 1000 nM

CC(C)NC(=O)c1csc(-c2oc(CNC(=O)c3ccccc3O)nc2-c2ccc(F)cc2)n1 [Example 125]
IC50: > 1000 nM

CC(C)NC(=O)c1csc(-c2oc(CNC(=O)c3ccc(F)cc3)nc2-c2ccc(F)cc2)n1 [Example 126]
IC50: > 1000 nM

CC(C)NC(=O)c1csc(-c2oc(CNC(=O)c3cccc(F)c3)nc2-c2ccc(F)cc2)n1 [Example 127]
IC50: > 1000 nM

CCCCCCCC(=O)NCc1nc(-c2ccc(F)cc2)c(-c2nc(C(=O)NC(C)C)cs2)o1 [Example 128]
IC50: ≤ 1000 nM

CC(C)NC(=O)c1csc(-c2oc(CNC(=O)c3ccc(C#N)cc3)nc2-c2ccc(F)cc2)n1 [Example 129]
IC50: ≤ 1000 nM

CC(C)NC(=O)c1csc(-c2oc(CNC(=O)c3cccc(C#N)c3)nc2-c2ccc(F)cc2)n1 [Example 130]
IC50: ≤ 1000 nM

CC(C)NC(=O)c1csc(-c2oc(CNC(=O)/C=C/c3ccccc3)nc2-c2ccc(F)cc2)n1 [Example 131]
IC50: ≤ 1000 nM

CC(C)NC(=O)c1csc(-c2oc(CNC(=O)c3ccccc3C=O)nc2-c2ccc(F)cc2)n1 [Example 132]
IC50: > 1000 nM

CC(C)NC(=O)c1csc(-c2oc(CNC(=O)c3ccc(C=O)cc3)nc2-c2ccc(F)cc2)n1 [Example 133]
IC50: ≤ 1000 nM

Cc1ccc(C(=O)NCc2nc(-c3ccc(F)cc3)c(-c3nc(C(=O)NC(C)C)cs3)o2)c(C)c1 [Example 134]
IC50: > 1000 nM

Cc1ccccc1CC(=O)NCc1nc(-c2ccc(F)cc2)c(-c2nc(C(=O)NC(C)C)cs2)o1 [Example 135]
IC50: > 1000 nM

Cc1cccc(C(=O)NCc2nc(-c3ccc(F)cc3)c(-c3nc(C(=O)NC(C)C)cs3)o2)c1C [Example 136]
IC50: > 1000 nM

Cc1ccc(C)c(C(=O)NCc2nc(-c3ccc(F)cc3)c(-c3nc(C(=O)NC(C)C)cs3)o2)c1 [Example 137]
IC50: > 1000 nM

Cc1cc(C)cc(C(=O)NCc2nc(-c3ccc(F)cc3)c(-c3nc(C(=O)NC(C)C)cs3)o2)c1 [Example 138]
IC50: > 1000 nM

Cc1ccc(C(=O)NCc2nc(-c3ccc(F)cc3)c(-c3nc(C(=O)NC(C)C)cs3)o2)cc1C [Example 139]
IC50: > 1000 nM

CCc1ccc(C(=O)NCc2nc(-c3ccc(F)cc3)c(-c3nc(C(=O)NC(C)C)cs3)o2)cc1 [Example 140]
IC50: > 1000 nM

COc1ccc(C(=O)NCc2nc(-c3ccc(F)cc3)c(-c3nc(C(=O)NC(C)C)cs3)o2)cc1 [Example 141]
IC50: > 1000 nM

Cc1cccc(C(=O)NCc2nc(-c3ccc(F)cc3)c(-c3nc(C(=O)NC(C)C)cs3)o2)c1O [Example 142]
IC50: > 1000 nM
